Consider 22 compounds from patent US8937091B2 (Japan Science and Technology Agency, priority 2009, dated 2015).

For test [1], the system named is SOCE (store operated calcium entry) in CHO cells. Description: Assay of SOCE (store operated calcium entry)-inhibiting action. The class given is cell-based, Chinese hamster. The conditions noted are these: CHO cells, thapsigargin; for inhibition at 10 µM / inhibition at 30 µM / inhibition at 100 µM: Cricetulus griseus, CHO, read-out: SOCE level (percentage of inhibition). In outline:
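CHO cells in calcium-free BSS received compound, then 1 μM thapsigargin 2 min later to deplete stores; after 9 min, 2 mM calcium chloride (final) added. Percent inhibition of the rise in intracellular calcium determined at various compound concentrations.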

Test [2] deals with IICR (IP3 induced calcium release) in CHO cells. Description: Assay of IICR (IP3 induced calcium release)-inhibiting action. The conditions noted are these: CHO cells, 10 μM ATP; for inhibition at 10 µM / inhibition at 30 µM / inhibition at 100 µM: Cricetulus griseus, CHO, read-out: IICR level (percentage of inhibition). The class given is cell-based, Chinese hamster. The essentials:
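CHO cell medium replaced with calcium-containing BSS; compound added 1 min later, then 10 μM ATP after a further 2 min. Percent inhibition of the ATP-evoked rise in intracellular calcium determined at each compound concentration.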

In general, inhibition refers to the drop in the measured response relative to a control, in per cent. Turning to `CC(C)N(CCC(=O)N1CCCCCC1=O)Cc1ccccc1` [Example 200, 3-(N-benzylisopropyl)aminopropionylcaprolactam], the inhibition at 10 µM in test [1] (test compound 10 μmol) and in test [2] (test compound 10 μmol) was 0% each time. Besides, the inhibition at 30 µM in test [1] (test compound 30 μmol) and in test [2] (test compound 30 μmol) was 0% each time. Also, the inhibition at 100 µM in test [1] (test compound 100 μmol) came to 10%; in test [2] (test compound 100 μmol), 20%.

With `CC(C)N(CCO)CCC(=O)N1CCCCCC1=O` [Example 201, 3-(N-hydroxyethylisopropyl)aminopropionylcaprolactam], the inhibition at 10 µM in test [1] (test compound 10 μmol) and in test [2] (test compound 10 μmol) was 0% in each case. Moreover, the inhibition at 30 µM in test [1] (test compound 30 μmol) and in test [2] (test compound 30 μmol) was 0% each time. For the same compound, the inhibition at 100 µM in test [1] (test compound 100 μmol) and in test [2] (test compound 100 μmol) was 0% each time.

In the case of `CC(C)N(CCC(=O)c1cc(Cl)sc1Cl)Cc1ccccc1` [Example 202, 2-(N-isopropylbenzyl)aminomethyl-3-(2,5-dichlorothiophenyl)ketone], the results for the inhibition at 10 µM in test [1] (test compound 10 μmol) and in test [2] (test compound 10 μmol) were 0% and 50%, respectively. Besides, the results for the inhibition at 30 µM in test [1] (test compound 30 μmol) and in test [2] (test compound 30 μmol) were 20% and 80%, respectively. Also, the inhibition at 100 µM amounted to 50% in test [1] (test compound 100 μmol) and 100% in test [2] (test compound 100 μmol).

For the compound `CC(C)N(CCO)CCC(=O)c1cc(Cl)sc1Cl` [Example 203, 2-(N-isopropyl-2-hydroxyethyl)aminomethyl-3-(2,5-dichlorothiophenyl)ketone], the inhibition at 10 µM came out at 50% in test [1] (test compound 10 μmol) and 40% in test [2] (test compound 10 μmol). Further, the inhibition at 30 µM in test [1] (test compound 30 μmol) worked out at 20%; in test [2] (test compound 30 μmol) it was 90%. Besides, the inhibition at 100 µM is 10% in test [1] (test compound 100 μmol) and 100% in test [2] (test compound 100 μmol).

Take `O=C(CCN(CCO)Cc1ccccc1)c1cc(Cl)sc1Cl` [Example 204, 2-(N-2-hydroxyethylbenzyl)aminomethyl-3-(2,5-dichlorothiophenyl)ketone]: the inhibition at 10 µM in test [1] (test compound 10 μmol) and in test [2] (test compound 10 μmol) was 0% in each case. Further, the inhibition at 30 µM was found to be 0% in test [1] (test compound 30 μmol) and 40% in test [2] (test compound 30 μmol). Also, the inhibition at 100 µM in test [1] (test compound 100 μmol) is 50%; in test [2] (test compound 100 μmol), 70%.

`CC(C)N(CCO)CCC(=O)c1ccc2ccccc2c1` [Example 205, 2-(N-hydroxyethylisopropyl)aminoethyl-2-naphthylketone]: the inhibition at 10 µM in test [1] (test compound 10 μmol) and in test [2] (test compound 10 μmol) was 0% throughout. For the same compound, the inhibition at 30 µM in test [1] (test compound 30 μmol) and in test [2] (test compound 30 μmol) was 0% throughout. Moreover, the inhibition at 100 µM in test [1] (test compound 100 μmol) and in test [2] (test compound 100 μmol) was 0% throughout.

Regarding `CC(C)N(CCO)CC(=O)c1ccccc1` [Example 206, 2-(N-hydroxyethylisopropyl)aminomethylphenylketone], the inhibition at 10 µM in test [1] (test compound 10 μmol) and in test [2] (test compound 10 μmol) was 0% each time. Also, the inhibition at 30 µM in test [1] (test compound 30 μmol) and in test [2] (test compound 30 μmol) was 0% throughout. The figures for the inhibition at 100 µM in test [1] (test compound 100 μmol) and in test [2] (test compound 100 μmol) were 0% and 40%, respectively.

Turning to `CC(C)N(CCO)CCCC(=O)c1ccccc1` [Example 207, 3-(N-hydroxyethylisopropyl)aminopropylphenylketone], the entries for the “SOCE level (percentage of inhibition)” value in test [1] (test compound 10 μmol), in test [1] (test compound 30 μmol) and in test [1] (test compound 100 μmol) were 0%, 0% and 30%, respectively. Further, the “IICR level (percentage of inhibition)” value in test [2] (test compound 10 μmol), in test [2] (test compound 30 μmol) and in test [2] (test compound 100 μmol) was 20% each time.

Regarding `CN(CCO)CCC(=O)c1cnccn1` [Example 208, 2-(N-hydroxyethylmethyl)aminoethyl-2-pyrazylketone], the inhibition at 10 µM was determined as 0% in test [1] (test compound 10 μmol) and 20% in test [2] (test compound 10 μmol). In addition, the figures for the inhibition at 30 µM in test [1] (test compound 30 μmol) and in test [2] (test compound 30 μmol) were 10% and 30%, respectively. In addition, the figures for the inhibition at 100 µM in test [1] (test compound 100 μmol) and in test [2] (test compound 100 μmol) were 20% and 30%, respectively.

For the compound `CCN(CCC(=O)c1ccncc1)Cc1ccccc1` [Example 209, 2-(N-ethylbenzyl)aminoethyl-4-pyridylketone], the values for the inhibition at 10 µM in test [1] (test compound 10 μmol) and in test [2] (test compound 10 μmol) were 0% and 20%, respectively. Also, the inhibition at 30 µM in test [1] (test compound 30 μmol) and in test [2] (test compound 30 μmol) was 20% each time. For the same compound, the inhibition at 100 µM in test [1] (test compound 100 μmol) worked out at 60%; in test [2] (test compound 100 μmol), 50%.

For the compound `CC(C)(C)N(CCC(=O)c1ccncc1)Cc1ccccc1` [Example 210, 2-(N-t-butylbenzyl)aminoethyl-4-pyridylketone], the inhibition at 10 µM in test [1] (test compound 10 μmol) and in test [2] (test compound 10 μmol) was 0% throughout. Besides, the inhibition at 30 µM in test [1] (test compound 30 μmol) was 10%; in test [2] (test compound 30 μmol) it was 20%. For the same compound, the inhibition at 100 µM in test [1] (test compound 100 μmol) is 30%; in test [2] (test compound 100 μmol), 0%.

With `O=C(CCN1CCN(c2ccco2)CC1)c1ccc(F)cc1` [Example 211, 2-(N-2-furylpiperadino)ethyl-4-fluorophenylketone], the inhibition at 10 µM in test [1] (test compound 10 μmol) was 0%; in test [2] (test compound 10 μmol), 30%. Further, the results for the inhibition at 30 µM in test [1] (test compound 30 μmol) and in test [2] (test compound 30 μmol) were 10% and 20%, respectively. Moreover, the inhibition at 100 µM in test [1] (test compound 100 μmol) worked out at 30%; in test [2] (test compound 100 μmol) it was 20%.

Consider `CC(C)N(CCC(=O)c1ccc(F)cc1)Cc1ccccc1` [Example 212, 2-(N-isopropylbenzyl)aminoethyl-4-fluorophenylketone], for which the values for the inhibition at 10 µM in test [1] (test compound 10 μmol) and in test [2] (test compound 10 μmol) were 0% and 20%, respectively. Besides, the inhibition at 30 µM in test [1] (test compound 30 μmol) stood at 30%; in test [2] (test compound 30 μmol), 80%. The inhibition at 100 µM was found to be 50% in test [1] (test compound 100 μmol) and 30% in test [2] (test compound 100 μmol).

On to `CC(C)(C)N(CCC(=O)c1cnccn1)Cc1ccccc1` [Example 213, 2-(N-2-benzyl-t-butyl)aminoethyl-2-pyrazylketone], for which the results for the inhibition at 10 µM in test [1] (test compound 10 μmol) and in test [2] (test compound 10 μmol) were 0% and 20%, respectively. Further, the values for the inhibition at 30 µM in test [1] (test compound 30 μmol) and in test [2] (test compound 30 μmol) were 0% and 80%, respectively. The inhibition at 100 µM in test [1] (test compound 100 μmol) came to 10%; in test [2] (test compound 100 μmol), 90%.

For the compound `CC(C)(C)N(CCO)CCC(=O)c1cnccn1` [Example 214, 2-(N-2-hydroxyethyl-t-butyl)aminoethyl-2-pyrazylketone], the inhibition at 10 µM in test [1] (test compound 10 μmol) was 10%; in test [2] (test compound 10 μmol), 0%. For the same compound, the inhibition at 30 µM in test [1] (test compound 30 μmol) and in test [2] (test compound 30 μmol) was 0% in each case. Further, the inhibition at 100 µM in test [1] (test compound 100 μmol) and in test [2] (test compound 100 μmol) was 0% throughout.

Take `CN(CCC(=O)c1cnccn1)Cc1ccccc1` [Example 215, 2-(N-benzylmethyl)aminoethyl-2-pyrazylketone]: the inhibition at 10 µM in test [1] (test compound 10 μmol) and in test [2] (test compound 10 μmol) was 0% each time. For the same compound, the inhibition at 30 µM in test [1] (test compound 30 μmol) and in test [2] (test compound 30 μmol) was 0% throughout. Further, the inhibition at 100 µM in test [1] (test compound 100 μmol) stood at 0%; in test [2] (test compound 100 μmol) it was 50%.

Consider `O=C(CCNCCCCNCCCNCCC(=O)c1ccncc1)c1ccncc1` [Example 216, N,N-bis(4-pyrizoylethyl)spermidine], for which the inhibition at 10 µM in test [1] (test compound 10 μmol) and in test [2] (test compound 10 μmol) was 0% each time. Also, the inhibition at 30 µM is 10% in test [1] (test compound 30 μmol) and 0% in test [2] (test compound 30 μmol). For the same compound, the inhibition at 100 µM in test [1] (test compound 100 μmol) worked out at 10%; in test [2] (test compound 100 μmol) it was 30%.

`O=C(CCN1CCCCC1CO)c1ccncc1` (stereo not drawn) [Example 217]: the inhibition at 10 µM in test [1] (test compound 10 μmol) amounted to 10%; in test [2] (test compound 10 μmol) it was 0%. The inhibition at 30 µM turned out to be 0% in test [1] (test compound 30 μmol) and 20% in test [2] (test compound 30 μmol). Further, the values for the inhibition at 100 µM in test [1] (test compound 100 μmol) and in test [2] (test compound 100 μmol) were 20% and 50%, respectively.

Turning to `CCN(CCC(=O)c1ccc2c(c1)Cc1ccccc1-2)Cc1ccccc1` [Example 218, 2-(N-benzylethyl)aminoethyl-2-florenylketone], the results for the inhibition at 10 µM in test [1] (test compound 10 μmol) and in test [2] (test compound 10 μmol) were 20% and 10%, respectively. The inhibition at 30 µM in test [1] (test compound 30 μmol) stood at 60%; in test [2] (test compound 30 μmol), 40%. In addition, the inhibition at 100 µM in test [1] (test compound 100 μmol) and in test [2] (test compound 100 μmol) was 70% each time.

As for `Cc1nc(C)c(C(=O)CCN(Cc2ccccc2)C(C)C)s1` [Example 219, 2-(N-benzylisopropyl)aminoethyl-5-(2,4-dimethylthiazolyl)ketone], the figures for the inhibition at 10 µM in test [1] (test compound 10 μmol) and in test [2] (test compound 10 μmol) were 0% and 20%, respectively. Besides, the inhibition at 30 µM in test [1] (test compound 30 μmol) stood at 0%; in test [2] (test compound 30 μmol) it was 90%. Moreover, the results for the inhibition at 100 µM in test [1] (test compound 100 μmol) and in test [2] (test compound 100 μmol) were 0% and 100%, respectively.

As to `Cc1nc(C)c(C(=O)CCNCCNCCO)s1` [Example 220, 2-(N-2-hydroxyaminoethyl)aminoethyl-5-(2,4-dimethylthiazolyl)ketone], the inhibition at 10 µM in test [1] (test compound 10 μmol) and in test [2] (test compound 10 μmol) was 0% throughout. In addition, the inhibition at 30 µM in test [1] (test compound 30 μmol) was 0%; in test [2] (test compound 30 μmol), 40%. The figures for the inhibition at 100 µM in test [1] (test compound 100 μmol) and in test [2] (test compound 100 μmol) were 0% and 40%, respectively.

Turning to `Cc1cc(C(=O)CCN(Cc2ccccc2)C(C)C)c(C)o1` [Example 221, 2-(N-benzylisopropyl)aminoethyl-3-(2,5-dimethylfuryl)ketone], the inhibition at 10 µM in test [1] (test compound 10 μmol) and in test [2] (test compound 10 μmol) was 0% throughout. Also, the inhibition at 30 µM in test [1] (test compound 30 μmol) and in test [2] (test compound 30 μmol) was 0% each time. Besides, the inhibition at 100 µM in test [1] (test compound 100 μmol) and in test [2] (test compound 100 μmol) was 0% in each case.
